Test results published in ChEMBL document CHEMBL5352508, “Discovery and Structure-Based Design of Inhibitors of the WD Repeat-Containing Protein 5 (WDR5)-MYC Interaction” (J Med Chem, 2023).
Blank lines part the entries; values can stand above or below the compound they belong to. Calls of active or inactive are those of the source. The rule behind the calls is not given here.

Assays:
[1] = target: T1, WDR5-MYC (Homo sapiens, UniProt P61964); test: Inhibition of N-terminal his-tagged WDR5 (1 to 334 residues) (unknown origin)/Biotin tagged Myc (256-268 residues) (unknown origin) interaction measured after 1 hrs by HTRF assay; assay type: protein assay
[2] = Microsomal stability in mouse liver microsome assessed as intrinsic clearance; assay type: ADME; settings: liver microsomes, read-out: CLH
[3] = Apparent permeability of the compound in dog MDCKII-LE cells measured upto 1.5 hrs; assay type: ADME, cell-based, Canis lupus familiaris; settings: MDCK
[4] = target: T2, Histone-lysine N-methyltransferase 2A/WDR5 (Homo sapiens) (UniProt P61964+Q03164); test: Inhibition of WDR5 (unknown origin)/MLL (unknown origin) interaction by NanoBiT assay; assay type: protein assay
[5] = system: HL-60; test: Effect on MCM10 mRNA expression in human HL-60 cells measured after 24 hrs by RT-qPCR assay; assay type: functional, cell-based
[6] = system: HL-60; test: Effect on Cdc20 mRNA expression in human HL-60 cells measured after 24 hrs by RT-qPCR assay; assay type: functional, cell-based
[7] = system: Daudi; test: Antiproliferative activity against human Daudi cells assessed as cell growth inhibition measured after 72 hrs by CellTier-Glo assay; assay type: functional
[8] = system: NB-4; test: Antiproliferative activity against human NB4 cells assessed as cell growth inhibition measured after 72 hrs by CellTier-Glo assay; assay type: functional
[9] = system: HL-60; test: Downregulation of RPL37A gene expression in human HL-60 cells at 10 uM measured after 24 hrs by RT-qPCR assay; assay type: functional, cell-based
[10] = system: SHP77; test: Antiproliferative activity against human SHP77 cells assessed as cell growth inhibition measured after 72 hrs by CellTier-Glo assay; assay type: functional
[11] = system: HL-60; test: Effect on AURKB mRNA expression in human HL-60 cells measured after 24 hrs by RT-qPCR assay; assay type: functional, cell-based
[12] = system: COR-L279; test: Antiproliferative activity against human COR-L279 cells assessed as cell growth inhibition measured after 72 hrs by CellTier-Glo assay; assay type: functional
[13] = system: Ramos; test: Antiproliferative activity against human Ramos cells assessed as cell growth inhibition measured after 72 hrs by CellTier-Glo assay; assay type: functional
[14] = system: HL-60; test: Antiproliferative activity against human HL-60 cells assessed as cell growth inhibition measured after 72 hrs by CellTier-Glo assay; assay type: functional
[15] = system: HL-60; test: Downregulation of RPL23 gene expression in human HL-60 cells at 10 uM measured after 24 hrs by RT-qPCR assay; assay type: functional, cell-based
[16] = system: NCI-H1650; test: Antiproliferative activity against human NCI-H1650 cells assessed as cell growth inhibition measured after 72 hrs by CellTier-Glo assay; assay type: functional
[17] = system: HL-60; test: Downregulation of RPL35 gene expression in human HL-60 cells at 10 uM measured after 24 hrs by RT-qPCR assay; assay type: functional, cell-based
[18] = system: HL-60; test: Downregulation of RPL17 gene expression in human HL-60 cells at 10 uM measured after 24 hrs by RT-qPCR assay; assay type: functional, cell-based
[19] = system: HL-60; test: Effect on MCM4 mRNA expression in human HL-60 cells measured after 24 hrs by RT-qPCR assay; assay type: functional, cell-based
[20] = system: NCI-H520; test: Antiproliferative activity against human NCI-H520 cells assessed as cell growth inhibition measured after 72 hrs by CellTier-Glo assay; assay type: functional
[21] = target: T3, WD repeat-containing protein 5 (Homo sapiens, UniProt P61964); test: Inhibition of N-terminal his-tagged WDR5 (1 to 334 residues) (unknown origin) measured after 180 mins by HTRF assay
[22] = target: T3, WD repeat-containing protein 5; test: Inhibition of N-terminal his-tagged WDR5 (1 to 334 residues) (unknown origin) measured after 360 mins by HTRF assay
[23] = target: T3, WD repeat-containing protein 5; test: Inhibition of N-terminal his-tagged WDR5 (1 to 334 residues) (unknown origin) measured after 360 mins by HTRF assay relative to control
[24] = system: HL-60; test: Downregulation of RPL23 gene expression in human HL-60 cells measured after 24 hrs by RT-qPCR assay; assay type: functional, cell-based; settings: dose 3-10 µM
[25] = system: HL-60; test: Downregulation of RPL17 gene expression in human HL-60 cells measured after 24 hrs by RT-qPCR assay; assay type: functional, cell-based; settings: dose 3-10 µM
[26] = target: T2, Histone-lysine N-methyltransferase 2A/WDR5 (Homo sapiens); test: Inhibition of MLL/flag-tagged WDR5 interaction in HEK293T cells overexpressing flag-tagged WDR5 upto 30 uM incubated for 6 hrs by coimmunoprecipitation assay; assay type: cell-based
[27] = system: HL-60; test: Downregulation of RPL35 gene expression in human HL-60 cells measured after 24 hrs by RT-qPCR assay; assay type: functional, cell-based; settings: dose 3-10 µM
[28] = target: T3, WD repeat-containing protein 5; test: Inhibition of N-terminal his-tagged WDR5 (1 to 334 residues) (unknown origin) measured after 180 mins by HTRF assay relative to control
[29] = system: HL-60; test: Downregulation of RPL37A gene expression in human HL-60 cells measured after 24 hrs by RT-qPCR assay; assay type: functional, cell-based; settings: dose 3-10 µM
[30] = target: T1, WDR5-MYC; test: Inhibition of WDR5 (unknown origin)/MYC (unknown origin) interaction; assay type: protein assay
[31] = target: T3, WD repeat-containing protein 5; test: Inhibition of N-terminal his-tagged WDR5 (1 to 334 residues) (unknown origin) measured after 10 mins by HTRF assay
[32] = target: WDR5-MYC (Homo sapiens) (UniProt P61964+P01106); test: Inhibition of flag-tagged WDR5/endogenous MYC interaction in HEK293T cells overexpressing flag tagged WDR5 incubated for 6 hrs by coimmunoprecipitation assay; assay type: cell-based; settings: dose 5-30 µM
[33] = target: T1, WDR5-MYC; test: Inhibition of his-tagged WDR5/flag-tagged MYC interaction overexpressed in HEK293T cells incubated for 5 hrs; assay type: cell-based
[34] = system: HEK293T; test: Inhibition of RBBP5/flag-tagged WDR5 interaction in HEK293T cells overexpressing flag-tagged WDR5 upto 30 uM incubated for 6 hrs by coimmunoprecipitation assay; assay type: cell-based; settings: Homo sapiens
[35] = target: T3, WD repeat-containing protein 5; test: Inhibition of N-terminal his-tagged WDR5 (1 to 334 residues) (unknown origin) measured after 30 mins by HTRF assay
[36] = target: T3, WD repeat-containing protein 5; test: Inhibition of N-terminal his-tagged WDR5 (1 to 334 residues) (unknown origin) measured after 90 mins by HTRF assay
[37] = target: T3, WD repeat-containing protein 5; test: Inhibition of N-terminal his-tagged WDR5 (1 to 334 residues) (unknown origin) measured after 90 mins by HTRF assay relative to control
[38] = target: T3, WD repeat-containing protein 5; test: Inhibition of N-terminal his-tagged WDR5 (1 to 334 residues) (unknown origin) measured after 30 mins by HTRF assay relative to control
[39] = target: T3, WD repeat-containing protein 5; test: Inhibition of N-terminal his-tagged WDR5 (1 to 334 residues) (unknown origin) measured after 10 mins by HTRF assay relative to control

IC50 [1]: 25.4 µM
Compound: Cc1cc(=O)c(C(=O)NCc2c(F)cc(-c3ccccc3)cc2F)nn1-c1cccnc1

IC50 [1]: 5.51 µM
Compound: Cc1cc(=O)c(C(=O)NCc2c(F)cc(-c3cccc(C(C)O)c3)cc2F)nn1-c1ccccc1 (stereo unspecified)

IC50 [1]: 3.15 µM
Compound: Cc1cc(=O)c(C(=O)NCc2c(F)cc(N3CC[C@@H](F)C3)cc2F)nn1-c1cccc(CC(N)=O)c1

IC50 [1]: 8.13 µM
Compound: CC(=O)c1cccc(-c2cc(F)c(CNC(=O)c3nn(-c4ccccc4)c(C)cc3=O)c(F)c2)c1

IC50 [1]: 0.91 µM
Compound: Cc1cc(=O)c(C(=O)NCc2c(F)cc(-c3cccc(S(=O)(=O)O)c3)cc2F)nn1-c1ccccc1

Compound: CCCC[C@@H](Cc1c(F)cc(-c2cccc(S(=O)(=O)F)c2)cc1F)C(=O)Nc1nnn[nH]1
microsomal CLint [2]: 150 µL/min/mg | Papp at 1.5 h [3]: 0.96 ×10⁻⁶ cm/s

IC50 [1]: 13.9 µM
Compound: Cc1cc(=O)c(O)c(C(=O)NCc2ccc(-c3ccccc3C#N)cc2)o1

IC50 [1]: 1.43 µM
Compound: Cc1cc(=O)c(C(=O)NCc2c(F)cc(N3CC[C@@H](F)C3)cc2F)nn1-c1cccc(CC(=O)O)c1

IC50 [1]: 43.4 µM | inhibition [4]: inactive | GI50 [7]: > 50 µM | GI50 [13]: > 50 µM | GI50 [14]: > 50 µM | GI50 [16]: > 50 µM | GI50 [20]: > 50 µM
Compound: Cc1cc(=O)c(C(=O)N(C)Cc2c(F)cc(C3CCCOC3)cc2F)nn1-c1ccccc1 (stereo unspecified)
Activity [5]: inactive | Activity [6]: inactive | GI50 [8]: > 50 µM | Activity [9]: inactive | GI50 [10]: > 50 µM | Activity [11]: inactive | GI50 [12]: > 50 µM | Activity [15]: inactive | Activity [17]: inactive | Activity [18]: inactive | Activity [19]: inactive

IC50 [1]: 3.83 µM
Compound: Cc1cc(=O)c(C(=O)NCc2c(F)cc(C3CCCOC3)cc2F)nn1-c1ccccc1 (stereo unspecified)

IC50 [1]: 5.67 µM
Compound: Cc1cc(=O)c(C(=O)NCc2c(F)cc(N3CC[C@H](O)C3)cc2F)nn1-c1ccccc1

IC50 [1]: 0.78 µM
Compound: Cc1cc(=O)c(C(=O)NCc2c(F)cc(N3CC[C@@H](F)C3)cc2F)nn1-c1ccccc1

Compound: Cc1cc(=O)c(C(=O)NCc2c(F)cc(-c3cccc(S(=O)(=O)F)c3)cc2F)nn1-c1ccccc1
IC50 [1]: 0.39 µM | inhibition [4]: inactive | IC50 [21]: 0.17 µM | IC50 [22]: 0.1 µM | inhibition [23]: 91.9% | Activity [5]: inactive | Activity [24]: Dose-Dependent Effect | Activity [6]: inactive | GI50 [7]: 15.4 µM | Activity [25]: Dose-Dependent Effect | GI50 [8]: 7.1 µM | microsomal CLint [2]: 46.9 µL/min/mg | inhibition [26]: inactive | Activity [27]: Dose-Dependent Effect | GI50 [10]: 16.6 µM | inhibition [28]: 88.5% | Activity [11]: inactive | Activity [29]: Dose-Dependent Effect | IC50 [30]: 5.8 µM | IC50 [31]: 2.09 µM | inhibition [32]: Dose-Dependent Effect | GI50 [12]: 4.2 µM | IC50 [33]: 4.8 µM | GI50 [13]: 4.3 µM | inhibition [34]: inactive | Papp at 1.5 h [3]: 1.77 ×10⁻⁶ cm/s | GI50 [14]: 4.6 µM | IC50 [35]: 0.79 µM | GI50 [16]: 22.6 µM | IC50 [36]: 0.3 µM | inhibition [37]: 78.5% | inhibition [38]: 64% | inhibition [39]: 59.3% | Activity [19]: inactive | GI50 [20]: 9.4 µM

IC50 [1]: 1.2 µM
Compound: Cc1cc(=O)c(C(=O)NCc2c(F)cc(N3CC[C@H](F)C3)cc2F)nn1-c1ccccc1

IC50 [1]: 15.8 µM
Compound: Cc1cc(=O)c(C(=O)NCc2c(F)cc(-c3ccccc3)cc2F)nn1-c1ccccc1

IC50 [1]: 3.24 µM
Compound: Cc1cc(=O)c(C(=O)NCc2c(F)cc(N3CCOCC3)cc2F)nn1-c1ccccc1

IC50 [1]: 2.48 µM
Compound: Cc1cc(=O)c(C(=O)NCc2c(F)cc(-c3cccc(C(=O)O)c3)cc2F)nn1-c1ccccc1

IC50 [1]: 1.58 µM
Compound: Cc1cc(=O)c(C(=O)NCc2c(F)cc(C3=CC(=O)CCC3)cc2F)nn1-c1ccccc1

IC50 [1]: 0.95 µM
Compound: Cc1cc(=O)c(C(=O)NCc2c(F)cc(N3CC[C@H](F)C3)cc2F)nn1-c1cccc(C(N)=O)c1

Compound: Cc1cc(=O)c(C(=O)NCc2c(F)cc(-c3cccc(S(=O)(=O)F)c3)cc2F)nn1-c1cccc(C(=O)O)c1
IC50 [1]: 0.19 µM

IC50 [1]: 1.23 µM
Compound: Cc1cc(=O)c(C(=O)NCc2c(F)cc(N3CC[C@@H](F)C3)cc2F)nn1-c1cccc(C(=O)O)c1

IC50 [1]: 0.64 µM
Compound: Cc1cc(=O)c(C(=O)NCc2c(F)cc(N3CC[C@H](F)C3)cc2F)nn1-c1cccc(C(=O)O)c1

IC50 [1]: 0.82 µM
Compound: Cc1cc(=O)c(C(=O)NCc2c(F)cc(N3CCCC(F)(F)C3)cc2F)nn1-c1ccccc1

IC50 [1]: 5.69 µM
Compound: Cc1cc(=O)c(C(=O)NCc2c(F)cc(-c3cccc(CO)c3)cc2F)nn1-c1ccccc1

IC50 [1]: 2.46 µM
Compound: Cc1cc(=O)c(C(=O)NCc2c(F)cc(N3CCCC(C)(C)C3)cc2F)nn1-c1ccccc1

IC50 [1]: 4.45 µM
Compound: Cc1cc(=O)c(C(=O)NCc2c(F)cc(-c3cccnc3)cc2F)nn1-c1ccccc1

IC50 [1]: 3.72 µM
Compound: Cc1cc(=O)c(C(=O)NCc2c(F)cc(N3CC[C@@H](O)C3)cc2F)nn1-c1ccccc1

IC50 [1]: 1.93 µM
Compound: Cc1cc(=O)c(C(=O)NCc2c(F)cc(N3CC[C@@H](F)C3)cc2F)nn1-c1cccc(C(N)=O)c1

IC50 [1]: 13.8 µM
Compound: Cc1cc(=O)c(C(=O)NCc2c(F)cc(-c3cncnc3)cc2F)nn1-c1ccccc1
